This assay concerns the target T1, PR-A (Homo sapiens, UniProt P06401).
T1 construct: expressed in transfected cells
T1 sequence (P06401 1-769 isoform P06401-2): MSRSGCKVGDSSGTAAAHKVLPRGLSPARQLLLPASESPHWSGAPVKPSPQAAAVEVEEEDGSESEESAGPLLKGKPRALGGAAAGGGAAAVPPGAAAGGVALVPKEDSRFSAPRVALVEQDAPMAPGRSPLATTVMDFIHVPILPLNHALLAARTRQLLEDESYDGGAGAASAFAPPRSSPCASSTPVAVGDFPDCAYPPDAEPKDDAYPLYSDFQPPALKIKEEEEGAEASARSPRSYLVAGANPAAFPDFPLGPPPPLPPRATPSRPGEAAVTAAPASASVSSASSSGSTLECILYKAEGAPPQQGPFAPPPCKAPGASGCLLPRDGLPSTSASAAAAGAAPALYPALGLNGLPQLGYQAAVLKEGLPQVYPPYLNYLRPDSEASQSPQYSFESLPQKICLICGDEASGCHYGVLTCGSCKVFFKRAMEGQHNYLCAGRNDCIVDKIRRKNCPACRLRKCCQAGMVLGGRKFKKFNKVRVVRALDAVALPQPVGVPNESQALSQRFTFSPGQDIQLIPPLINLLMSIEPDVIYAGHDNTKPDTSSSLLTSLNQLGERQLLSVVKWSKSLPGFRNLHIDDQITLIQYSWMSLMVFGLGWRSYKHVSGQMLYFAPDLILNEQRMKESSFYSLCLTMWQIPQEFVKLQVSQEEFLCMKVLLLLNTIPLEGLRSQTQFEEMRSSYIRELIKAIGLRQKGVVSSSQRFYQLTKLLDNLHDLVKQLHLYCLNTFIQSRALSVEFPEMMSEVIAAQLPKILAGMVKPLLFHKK
As to the kind of experiment: Transcriptional assay: integrin alpha 6 promoter-luciferase in HeLa cells cotransfected with PR-A. As to conditions: 10 nM progesterone 24 hours. The class given is cell-based.

Results on one compound are retold here after patent publication US6750015B2 (priority 2000, dated 2004).

Consider `CC(=O)[C@H]1CC[C@H]2[C@@H]3CCC4=CC(=O)CC[C@]4(C)[C@H]3CC[C@]12C` [progesterone], for which the “Transcription of the integrin alpha 6 promoter (luciferase)” value is reported as “not regulated at all”.
